Results taken from patent US20190167771A1, “CONTROL ANGIOGENESIS BY REGULATING PHOSPHORYLATION OF SERYL-tRNA SYNTHETASE (SerRS)” (The Scripps Research Institute, priority 2016, published 2019).

Assays:
VEGFA [1] = assay: VEGFA mRNA induction by 12-hour hypoxia in HEK293 cells (qRT-PCR); assay type: cell-based, human; conditions: inhibitor 5 μM pretreatment, hypoxia 12 hours
Procedure: In FIG. 3B, HEK293 cells were transiently transfected with SerRS^WT or SerRS^S101A/S241A constructs or empty control vector. 24 hours post-transfection, VEGFA mRNA induction by 12-hour-hypoxia treatment was monitored by qRT-PCR (means±SEM from four independent experiments; *P<0.05, **P<0.01, ***P<0.005). In FIG. 3C, HEK293 cells were transiently transfected with indicated constructs. 36 hours post-transfection, VEGFA mRNA induction by 12-hour-hypoxia treatment was monitored by qRT-PCR (means±SEM from four independent experiments; *P<0.0, **P<0.001, ***P<0.0001). The protein levels of SerRS, HIF-1α, and β-actin were examined by western blot (bottom).
Transient transfections were performed using Lipofectamine 2000 (ThermoFisher Scientific).
One gram of the total RNA from each sample was reversely transcribed to cDNA by M-MLV reverse transcriptase (Promega, Madison, Wis., USA). All real-time PCR reactions were performed using the StepOnePlus Real-Time PCR system (ThermoFisher Scientific) with SYBR Select Master Mix ThermoFisher Scientific). […] The PCR reaction program started at 95° C. for 10 min, followed by 45 cycles of 95° C. for 20 seconds and 60° C. for 1 min. Each experiment was carried out in triplicate. The VEGFA gene expression was normalized to that of β-ACTIN. Statistical analyses were performed with the software SigmaPlot (version 10.0). Student's t-test was used to analyze the changes between different groups.

SerRS phosphorylation = assay: Hypoxia-induced phosphorylation of endogenous SerRS in HEK293 cells with ATM/ATR inhibitors (IP/IB); assay type: cell-based, human; conditions: HEK293 pretreated with inhibitor for one hour, hypoxia 12 hours
Procedure: In FIG. 7C, HEK293 cells were pretreated with specific ATM inhibitor KU-55933 and ATR inhibitor VE-821 for one hour and then cultured under hypoxia condition for 12 hours. Cell lysates were subjected to IP with anti-SerRS antibody followed by immunoblot (IB) with anti-P-SQ antibody for detecting phosphorylated SerRS (P-SerRS). Phosphorylation of known ATM/ATR substrates (Chk1 and Chk2) was also immunoblotted.
Cells were resuspended with lysis buffer (20 mM Tris-HCl (pH 7.5), 150 mM NaCl, 1 mM of EDTA, 1 mM EGTA, 1% Triton X-100, 2.5 mM sodium pyrophosphate, 1 mM beta-glycerophosphate, 1 mM Na3VO4, and protease inhibitor cocktail) on ice. Supernatants were incubated with indicated antibodies and protein-G-conjugated agarose beads (ThermoFisher Scientific) for at least 2 h. The beads were washed five times with wash buffer (same as the lysis buffer, except that Triton X-100 was reduced from 1% to 0.1%) and then subjected to SDS-PAGE and immunoblotting analysis with indicated antibodies.

zebrafish embryos = assay: Intersegmental vessel (ISV) branching in zebrafish embryos; assay type: in vivo; conditions: SerRS-MO alone, 3 dpf
Procedure: (§1) In FIG. 2A, wild type SerRS (SerRS^WT), its mutants with double substitutions of serine 101 and 241 with alanine or aspartic acid residues (SerRS^S101A/S241A and SerRS^S101D/S241D), or empty vector were transfected into HEK293 cells. The expression levels of SerRS proteins was measured by immunoblot (bottom) and VEGFA expression was determined by qRT-PCR (means±SEM from three independent experiments; ***P<0.0001). In FIGS. 2B-D, the roles of SerRS^S101A/S241A and SerRS^S101D/S241D in regulating vascular development in vivo in zebrafish were examined by co-injection of SerRS^S101A/S241A and SerRS^S101D/S241D mRNAs into one-cell-stage embryos whose endogenous SerRS was knocked down by injection of antisense morpholino (SerRS-MO) that led to abnormal high expression of Vegfa and hypervascularization (shown by short bold arrows in FIG. 2C). At 3 day post fertilization (dpf), embryos were harvested and Vegfa expression levels were measured by qRT-PCR (means±SEM, n=125-211; *P<0.01, **P<0.001) (B). The development of intersegmental vessel (ISV) at 3 dpf was examined (C) and the statistics of ISV abnormal branching rescued by SerRS^WT or mutant SerRS mRNA injections was analyzed (D; χ^2-test,* P>0.05 vs SerRS^WT, **P>0.1 vs SerRS-MO, ***P<1×10^−28 vs control-MO). In FIG. 2E, the binding affinities of SerRS^WT or SerRS^S101D/S241D with ^32P labeled DNA fragments corresponding to SerRS binding site on human VEGFA promoter were examined by EMSA. In FIG. 2F, the binding of SerRS^WT, SerRS^S101A/S241A, or SerRS^S101D/S241D on VEGFA promoter in HEK293 cells was examined by chromatin immunoprecipitation (ChIP) and qPCR (means±SEM from two independent experiments; ***P<0.0001). In FIG. 2G, the binding of endogenous SerRS on VEGFA promoter during hypoxia course was monitored by ChIP (means±SEM from three independent experiments; *P<0.05, **P<0.005 vs normal).
Transgenic Tg (Fli1a: EGFP) fish were maintained as we described before (Ref). The fish embryos were kept at 28.5° C. before and after microinjection. The antisense morpholino (MOs) targeting SerRS was injected into the yolk of 1-cell stage embryos at the dosage of 4˜5 ng per embryo. The sequence of SerRS-MO is (Ref). The SerRS-MO (5′ AGGAGAATGTGAACAAACCTGACAC 3′ (SEQ ID NO: 34)) and standard control MO (5′ CCTCTTACCTCAGTTACAATTTATA 3′ (SEQ ID NO: 35)) were purchased from Gene Tools, LLC (Philomath, Oreg. USA). After injection, embryos were incubated in E3 embryo medium supplemented with 0.003% 1-phenyl-2-thiourea (PTU) at 28.5° C. to prevent pigment formation. […] The rescue effects of different SerRS mutants on ISV development were analyzed with χ^2 test. […]

Vegfa [2] = assay: Vegfa mRNA by qRT-PCR in zebrafish embryos with SerRS knockdown and mRNA co-injection; assay type: in vivo; conditions: morpholino injected into 1-cell stage embryos, 3 dpf
Procedure: as §1
Total RNA was isolated from cells and zebrafish embryos by TRIzol Reagent (ThermoFisher Scientific). […] of the total RNA from each sample was reversely transcribed to cDNA by M-MLV reverse transcriptase (Promega, Madison, Wis., USA). All real-time PCR reactions were performed using the StepOnePlus Real-Time PCR system (ThermoFisher Scientific) with SYBR Select Master Mix ThermoFisher Scientific). […]

ATM/ATR kinases = assay: In vitro phosphorylation of recombinant SerRS by DNA-activated HEK293 nuclear extract (p-SQ immunoblot, 32P-labelling); assay type: biochemical, human; conditions: recombinant his6-tagged protein, p-SQ antibody and 32P-labelling
Procedure: FIGS. 1A-G show SerRS is important for hypoxia induced VEGFA expression and is phosphorylated by ATM and ATR kinases under hypoxia at serine 101 and serine 241 residues. In FIG. 1A, HEK293 cells were transfected with shRNAs targeting SerRS (sh-SerRS) or GlyRS (sh-GlyRS), or nonspecific control shRNA (sh-Control). 48 hours post-transfection, cells were cultured under hypoxia or normoxia conditions for 12 hours. Immunoblot of cell lysates with anti-SerRS, anti-GlyRS and anti-β-actin antibodies (left). VEGFA expression levels were measured by qRT-PCR (right) and relative induction of VEGFA transcription under hypoxia were plotted (right, inset) (means±SEM. from four independent experiments; *P<0.01, **P<0.0001). […] The conserved ATM/ATR substrate motif residues are underlined. In FIG. 1C, recombinant his6-tagged human SerRS or GlyRS were incubated with γ-^32P-ATP and HEK293 cell nuclear extracts which are treated with or without double-stranded DNA oligoes mimicking DNA damage stimuli to activate ATM/ATR/DNA-PK kinases. Recombinant proteins were then purified by Ni-NTA beads and subjected to SDS-PAGE and autoradiography. In FIG. 1D, recombinant his6-tagged two human aminoacyl tRNA synthetases (AARS): TyrRS and GlyRS, wild type SerRS, or SerRS mutants with single or double substitutions of serine 101 and serine 241 with alanine (S101A, S241A, and S101A/S241A) were treated as described in FIG. 1C and phosphorylated recombinant proteins were immunoblotted with antibodies as indicated after purification by Ni-NTA beads. In FIG. 1E, HEK293 cells were cultured under hypoxia for 3, 6, and 12 hours. Phosphorylated SerRS was immunoblotted with specific anti-p-SQ antibody after SerRS proteins were immunoprecipitated (IP). Cell lysates were immunoblotted with indicated antibodies for known ATM and ATR substrates (Chk1 and P53). In FIG. 1F, Flag-tagged wild type and mutant SerRS constructs were transfected into HEK293 cells. 24 hours post-transfection, cells were treated with hypoxia stress for 12 hours and ectopically expressed SerRS was then purified by immunoprecipitation (IP) using anti-Flag antibody and immunoblot (IB) with anti-P-SQ antibody and anti-Flag antibody. In FIG. 1G, HEK293 cells were transfected with siRNA against ATM (si-ATM) or ATR (si-ATR) and treated with hypoxia stress for 12 hours. Phosphorylated SerRS were immunoblotted as described in FIG. 1E. […]
For protein purification, human SerRS and its mutant genes were subeloned into pET-20b(+) plasmid (Novagen, Darmstadt, Germany) and overexpressed in E. coli. […] The purities of the recombinant proteins were assessed by Coomassie blue staining following 4-12% Mini Gel (ThermoFisher Scientific) electrophoresis. Protein concentrations were determined using Bradford protein assay (BioRad, Hercules, Calif., USA). […]

| Molecule | VEGFA induction under hypoxia (VEGFA [1]) | SerRS phosphorylation under hypoxia (SerRS phosphorylation) | level of phosphorylation in vitro (ATM/ATR kinases) | also measured |
| --- | --- | --- | --- | --- |
| O=c1cc(-c2cccc3c2Sc2ccccc2S3)oc(N2CCOCC2)c1 [KU-55933, reference compound] | less but still statistically significant | blocked |  |  |
| SerRS-MO: antisense morpholino targeting zebrafish SerRS, SEQ ID NO: 34 (antisense AGGAGAATGTGAACAAACCTGACAC; all phosphorodiamidate morpholino (PMO)) [reference compound] |  |  |  | zebrafish embryos with abnormal hyper-ISV branching phenotype (zebrafish embryos): 69.7%; increase in the mRNA level of Vegfa (Vegfa [2]): 4 fold |
| SerRS^S101A: human SerRS mutant, serine 101 substituted with alanine, SEQ ID NO: 2 |  |  | decreased level of phosphorylation |  |
| SerRS^S241A: human SerRS mutant, serine 241 substituted with alanine, SEQ ID NO: 3 |  |  | almost had no phosphorylation |  |
| CS(=O)(=O)c1ccc(-c2cnc(N)c(C(=O)Nc3ccccc3)n2)cc1 [VE-821, reference compound] | dramatically inhibited VEGFA induction | blocked |  |  |
